{"source": "ChEMBL document CHEMBL1158274", "about": "“Antibacterial neoclerodane diterpenoids from Ajuga lupulina” (1996)", "assay_type_in_all_cases": "functional", "key": {"Staphylococcus aureus": {"tested_on": "Staphylococcus aureus", "test": "Antibacterial activity against Staphylococcus aureus by paper disk diffusion method"}, "Escherichia coli": {"tested_on": "Escherichia coli", "test": "Antibacterial activity against Escherichia coli by paper disk diffusion method"}, "Pseudomonas aeruginosa": {"tested_on": "Pseudomonas aeruginosa", "test": "Antibacterial activity against Pseudomonas aeruginosa NJ94 by paper disk diffusion method"}}, "note": "Calls of active or inactive are those of the source. No cut-off for these calls is given here."}
{"smiles": "CC(=O)OC[C@@]12[C@@H](OC(C)=O)C[C@@H](C)[C@](C)([C@@H]3C[C@H]4C[C@H](O)O[C@H]4O3)[C@H]1CCC[C@]21CO1", "values": [{"measurement": "inhibition zone (IZ)", "setting": "Staphylococcus aureus", "result": 1.2, "unit": "mm"}, {"measurement": "inhibition zone (IZ)", "setting": "Escherichia coli", "result": 1.2, "unit": "mm"}, {"measurement": "Activity", "setting": "Pseudomonas aeruginosa", "result": "inactive"}]}
{"smiles": "CC[C@@H](C)C(=O)O[C@H]1CC[C@@H]2[C@@](C)([C@@H]3C[C@H]4C[C@H](OC)O[C@H]4O3)[C@H](C)C[C@H](OC(C)=O)[C@@]2(COC(C)=O)[C@@]12CO2", "note": "[LUPULIN B]", "values": [{"measurement": "inhibition zone (IZ)", "setting": "Staphylococcus aureus", "result": 1.2, "unit": "mm"}, {"measurement": "inhibition zone (IZ)", "setting": "Escherichia coli", "result": 1.2, "unit": "mm"}, {"measurement": "Activity", "setting": "Pseudomonas aeruginosa", "result": "inactive"}]}
{"smiles": "CC[C@@H](C)C(=O)O[C@H]1[C@H](O)C[C@@H]2[C@@](C)([C@@H]3C[C@H]4C[C@@H](OC)O[C@H]4O3)[C@H](C)C[C@H](OC(C)=O)[C@@]2(COC(C)=O)[C@@]12CO2", "note": "[LUPULIN A]", "values": [{"measurement": "inhibition zone (IZ)", "setting": "Staphylococcus aureus", "result": 1.5, "unit": "mm"}, {"measurement": "inhibition zone (IZ)", "setting": "Escherichia coli", "result": 3, "unit": "mm"}, {"measurement": "inhibition zone (IZ)", "setting": "Pseudomonas aeruginosa", "result": 3, "unit": "mm"}]}
{"smiles": "CO[C@H]1C[C@@H]2C[C@@H]([C@@]3(C)[C@H](C)C[C@H](OC(C)=O)[C@]4(COC(C)=O)[C@@H]3CCC[C@]43CO3)O[C@@H]2O1", "values": [{"measurement": "Activity", "setting": "Staphylococcus aureus", "result": "inactive"}, {"measurement": "Activity", "setting": "Escherichia coli", "result": "inactive"}, {"measurement": "Activity", "setting": "Pseudomonas aeruginosa", "result": "inactive"}]}
